Counter-ions that a name gives are not always drawn.
Details: [M+H-H2O]+; instrument: TW; calibrated with polyalanine and drug standards

Row | collision cross section (N2) [Å²] | Structure (SMILES)
1 | 254.2 | COC(=O)C[C@H]1C2(C)CC34OC5(C)O[C@@]6([C@H](OC)C(OC(=O)C(C)C)[C@]7(C)C(/C(=C(/OC)C(C)C)C(=O)O[C@H]7c7ccoc7)[C@@]6(O5)[C@H](OC)[C@@]3(OC)C2OC(C)=O)[C@]14C (stereo partly drawn) [CHUKRASIN METHYL ETHER]
2 | 169.4 | COC(=O)C1=C(C)NC(C)=C(C(=O)OC)C1c1ccccc1[N+](=O)[O-] [NIFEDIPINE]

Row | Structure (SMILES) | collision cross section (N2) [Å²]
3 | NCCc1c[nH]c2ccccc12 [TRYPTAMINE] | 124.4

Same assay, conditions: [M+H]+; instrument: TW; calibrated with polyalanine and drug standards

Row | Structure (SMILES) | collision cross section (N2) [Å²]
4 | CCN(CC)CCOC(=O)c1ccc(N)cc1 [PROCAINE] | 154.7
5 | C=C[C@H]1CN2CC[C@H]1C[C@@H]2[C@@H](O)c1ccnc2ccccc12 [CINCHONINE] | 166.3
6 | O=c1c(-c2ccc(O)cc2)coc2c([C@@H]3O[C@H](CO)[C@@H](O)[C@H](O)[C@H]3O)c(O)ccc12 [PUERARIN] | 196.4
7 | CC(=O)N1CCN(c2ccc(OC[C@H]3CO[C@](Cn4ccnc4)(c4ccc(Cl)cc4Cl)O3)cc2)CC1 [KETOCONAZOLE] | 214.5
8 | O=C(O)C(O)C(O)C(=O)O (stereo not drawn) [TARTARIC ACID] | 124.4
9 | O=C1CC(c2ccc(O)cc2)Oc2cc(O)cc(O)c21 (stereo not drawn) [NARINGENIN] | 160.6
10 | CCCCC(CC)CN1CN(CC(CC)CCCC)CC(C)(N)C1 (stereo not drawn) [HEXETIDINE] | 194
11 | O=c1c(O)c(-c2ccc(O)cc2O)oc2cc(O)cc(O)c12 [MORIN] | 162.7
12 | O=C([O-])Cc1cnc[nH]1 [IMIDAZOL-4-YLACETIC ACID SODIUM SALT] | 120.7
13 | Cc1cc2cc3c(C)cc(=O)oc3c(C)c2o1 [TRIOXSALEN] | 147.4
14 | CC1=C2[C@H]3OC(=O)[C@@H](C)[C@@H]3CC[C@@]2(C)C=CC1=O [SANTONIN] | 154.9
15 | O=[N+]([O-])O[C@H]1CO[C@H]2[C@@H]1OC[C@H]2O[N+](=O)[O-] [ISOSORBIDE DINITRATE] | 151.6
16 | CC[C@H]1OC(=O)[C@H](C)[C@@H](O[C@H]2C[C@@](C)(OC)[C@@H](O)[C@H](C)O2)[C@H](C)[C@@H](O[C@@H]2O[C@H](C)C[C@H](N(C)C)[C@H]2O)[C@](C)(O)C[C@@H](C)/C(=N\OCOCCOC)[C@H](C)[C@@H](O)[C@]1(C)O [ROXITHROMYCIN] | 276.1
17 | N=c1nc(N2CCCCC2)cc(N)n1O [MINOXIDIL] | 146.1
18 | CC(C)NCC(O)c1cc(O)cc(O)c1 (stereo not drawn) [METAPROTERENOL] | 149.9
19 | CC1(C)O[C@@H]2C[C@H]3[C@@H]4C[C@H](F)C5=CC(=O)C=C[C@]5(C)[C@H]4[C@@H](O)C[C@]3(C)[C@]2(C(=O)CO)O1 [FLUNISOLIDE] | 199.8
20 | O=C(O)C1=CC(=C(c2ccc(O)c(C(=O)O)c2)c2ccc(O)c(C(=O)O)c2)C=CC1=O [AURIN TRICARBOXYLIC ACID] | 197.6
21 | COc1cc2oc3cc(OC)c(OC)c(CC=C(C)C)c3c(=O)c2c(O)c1CC=C(C)C [1-HYDROXY-3,6,7-TRIMETHOXY-2,8-DIPRENYLXANTHONE] | 209.7
22 | OCCOCCN1CCN(C2=Nc3ccccc3Sc3ccccc32)CC1 [QUETIAPINE] | 191.5
23 | Cc1nccc2c1[nH]c1ccccc12 [HARMANE] | 136.6
24 | CC(=O)Oc1ccc(Cl)c2cccnc12 [CHLOROACETOXYQUINOLINE] | 141.1
25 | CC(C)=CCc1c(O)cc2oc(C)cc(=O)c2c1O [PEUCENIN] | 154.2
26 | COc1c(O)cc2oc3cc(O)c(CC=C(C)C)c(O)c3c(=O)c2c1CC=C(C)C [alpha-MANGOSTIN] | 198.8
27 | CC(NC(C)(C)C)C(=O)c1cccc(Cl)c1 (stereo not drawn) [BUPROPION] | 157.5
28 | CC(=O)OC1CCC2(C)C3=C(CC[C@H]2C1(C)C)[C@@]1(C)CC[C@@H]([C@@H](C)CCC=C(C)C)[C@]1(C)CC3 (stereo partly drawn) [EUPHOL ACETATE] | 218
29 | C[C@H]1C[C@H]2[C@@H]3CCC4=CC(=O)C=C[C@]4(C)[C@@]3(F)[C@@H](O)C[C@]2(C)[C@@]1(O)C(=O)CO [BETAMETHASONE] | 186.7
30 | COc1cc2c(cc1OC)Cc1cc(OC)c(OC)cc1Cc1cc(OC)c(OC)cc1C2 [CYCLOVERATRYLENE] | 213.9
31 | O=C(O[C@@H]1Cc2c(O)cc(O)cc2O[C@@H]1c1cc(=O)c(O)c2c(O)c(O)cc([C@H]3Oc4cc(O)cc(O)c4C[C@H]3O)c2c1)c1cc(O)c(O)c(O)c1 [THEAFLAVIN MONOGALLATES] | 245.7

More lines, now with the values ahead:

Row | collision cross section (N2) [Å²] | Structure (SMILES)
32 | 162.7 | COc1ccc2c(c1)O[C@H]1c3ccc(OC)cc3OC[C@@H]21 [HOMOPTEROCARPIN]
33 | 145.3 | O=C(O)c1cc2cc(F)ccc2[nH]1 [5-FLUOROINDOLE-2-CARBOXYLIC ACID]
34 | 181.6 | COc1cc(-c2coc3cc(O)c(OC)c(O)c3c2=O)cc(O)c1OC [IRIGENIN]
35 | 157.2 | CC(C(=O)O)c1ccc(C(=O)c2cccs2)cc1 (stereo not drawn) [SUPROFEN]
36 | 185.1 | CCCCNc1cc(C(=O)O)cc(S(N)(=O)=O)c1Oc1ccccc1 [BUMETANIDE]
37 | 205.9 | COc1ccc(Cl)cc1C(=O)NCCc1ccc(S(=O)(=O)NC(=O)NC2CCCCC2)cc1 [GLYBURIDE]
38 | 181.1 | CC(C)c1ccc2c(c1)CCC1C(C)(C(N)=O)CCCC21C (stereo not drawn) [DEHYDROABIETAMIDE]
39 | 204.5 | Cc1cc(O)c(C=O)c2c1C(=O)Oc1c(COC(=O)/C=C/C(=O)O)c(O)c(C(=O)O)c(C)c1O2 [FUMARPROTOCETRARIC ACID]
40 | 209.5 | CC(=O)OCC(=O)[C@@]1(OC(C)=O)[C@@H](C)C[C@H]2[C@@H]3C[C@H](F)C4=CC(=O)C=C[C@]4(C)[C@@]3(F)[C@@H](O)C[C@@]21C [DIFLORASONE DIACETATE]
41 | 185.8 | Cc1c(OCC(F)(F)F)ccnc1CS(=O)c1nc2ccccc2[nH]1 (stereo not drawn) [LANSOPRAZOLE]
42 | 177.5 | COc1cc(O)c(C(=O)/C=C/c2ccc(O)c(OC)c2)c(OC)c1 [2',4-DIHYDROXY-3,4',6'-TRIMETHOXYCHALCONE]
43 | 168.2 | CC(=O)Nc1ccc(OC(=O)c2ccccc2O)cc1 [ACETAMINOSALOL]
44 | 160.9 | COc1ccc(-c2coc3cc(O)cc(O)c3c2=O)cc1 [BIOCHANIN A]
45 | 199.3 | CCCCC1(COC(=O)CCC(=O)O)C(=O)N(c2ccccc2)N(c2ccccc2)C1=O [SUXIBUZONE]
46 | 167.7 | COc1cc(NS(=O)(=O)c2ccc(N)cc2)nc(OC)n1 [SULFADIMETHOXINE]
47 | 193.1 | COc1cc(NS(C)(=O)=O)ccc1Nc1c2ccccc2nc2ccccc12 [AMSACRINE]
48 | 159.4 | Oc1ccc([C@H]2Oc3cc(O)cc(O)c3C[C@H]2O)cc1 [EPIAFZELECHIN (2R,3R)(-)]
49 | 176.5 | O=C(C1CCCCC1)N1CC(=O)N2CCc3ccccc3C2C1 (stereo not drawn) [PRAZIQUANTEL]
50 | 176.3 | CC(=O)Nc1c(I)c(NC(C)=O)c(I)c(C(=O)O)c1I [DIATRIZOIC ACID]
51 | 156.3 | Cc1ccnc(NS(=O)(=O)c2ccc(N)cc2)n1 [SULFAMERAZINE]
52 | 189.1 | COc1ccccc1OCCNCC(O)COc1cccc2[nH]c3ccccc3c12 (stereo not drawn) [CARVEDILOL]
53 | 187.2 | COC(=O)C1=C(C)NC(C)=C(C(=O)OCC(C)C)C1c1ccccc1[N+](=O)[O-] (stereo not drawn) [NISOLDIPINE]
54 | 160.3 | CCOc1cccc(C(=O)c2ccc(O)c(O)c2O)c1 [3,4-DIDESMETHYL-5-DESHYDROXY-3'-ETHOXYSCLEROIN]
55 | 161.4 | COc1ccc2oc(-c3ccccc3OC)cc(=O)c2c1 [6,2'-DIMETHOXYFLAVONE]
56 | 158.2 | Nc1ccc(S(=O)(=O)NC(=O)c2ccccc2)cc1 [SULFABENZAMIDE]

Same assay, conditions: [M+Na]+; instrument: TW; calibrated with polyalanine and drug standards

Row | collision cross section (N2) [Å²] | Structure (SMILES)
57 | 233.5 | C[C@H]1[C@H](C)CC[C@]2(C(=O)O)CC[C@]3(C)C(=CC[C@@H]4[C@@]5(C)C[C@@H](O)[C@H](O)[C@@](C)(CO)[C@@H]5CC[C@]43C)[C@H]12 [ASIATIC ACID]
58 | 216.6 | COC(=O)[C@@H]1OC(=O)C2OC23[C@@]1(C)CCC1[C@@]2(C)CCC(=O)C(C)(C)C2C[C@@H](OC(C)=O)[C@]13C (stereo partly drawn) [DIHYDROGEDUNIC ACID, METHYL ESTER]
59 | 141.4 | CC(=O)NCCCCCC(=O)O [ACEXAMIC ACID]
60 | 164.4 | OC[C@H]1O[C@@H](Oc2ccc(O)cc2)[C@H](O)[C@@H](O)[C@@H]1O [ARBUTIN]
61 | 292.7 | CC[C@H](C)[C@H]1O[C@]2(CC[C@@H]1C)C[C@@H]1C[C@@H](C/C=C(\C)[C@@H](O[C@H]3C[C@H](OC)[C@@H](O[C@H]4C[C@H](OC)[C@@H](O)[C@H](C)O4)[C@H](C)O3)[C@@H](C)/C=C/C=C3\CO[C@@H]4[C@H](O)C(C)=C[C@@H](C(=O)O1)[C@]34O)O2 [IVERMECTIN]

Row | Structure (SMILES) | collision cross section (N2) [Å²]
62 | CC1(C)C(C=C(Cl)Cl)C1C(=O)OC(C#N)c1cccc(Oc2ccccc2)c1 (stereo not drawn) [CYPERMETHRIN] | 200.6
63 | CC[C@H](C)[C@H]1O[C@]2(C=C[C@@H]1C)C[C@@H]1C[C@@H](C/C=C(\C)[C@@H](O[C@H]3C[C@H](OC)[C@@H](O[C@H]4C[C@H](OC)[C@@H](O)[C@H](C)O4)[C@H](C)O3)[C@@H](C)/C=C/C=C3\CO[C@@H]4[C@H](O)C(C)=C[C@@H](C(=O)O1)[C@]34O)O2 [Abamectin B1A] | 290.5
